In assay [1] the test system is RSV A2 virus strain. Nature of the assay: Cotton rat RSV A2 challenge protection, lung nucleic acid load by RT-qPCR. The format is in vivo. Particulars: cotton rats; for Nucleic acid load RT-qPCR detection results Log10 mean (copy number/gram of lung tissue): tracheal nebulization 1 mg/kg QD for 5 days, lung collected 2 h after final administration on Day 4; for effect on viral titer in lung tissue (in words): tracheal nebulization once daily for 5 days. From the text: Female cotton rats were from Shanghai Yishang Biotechnology Co., Ltd. The RSV A2 virus strain was from the ATCC, with a catalog number VR-1540. RT-qPCR primer+probe primer were supplied by Qingke Biotechnology Co., Ltd, with batch number TSP20241227-025-00187. The RT-qPCR standard was provided by Vazyme, with batch number 20241008.
Female cotton rats (6-8 weeks old) were grouped based on body weight (n=5). All animals were intranasally challenged with RSV on Day 0 at a challenge dosage of […] pfu (50 μL) per animal. Administration began 1 h after Day 0 challenge; the polypeptide sample, positive control, and solvent control were administered via tracheal nebulization once daily for 5 consecutive days. Lung tissue was collected from all animals 2 h after the final administration on Day 4. Left lung tissue (including partial trachea) was rapidly frozen in a virus protection solution with a 10-fold volume and stored below −70° C.; and the viral titer was detected with RT-qPCR.
First, sample homogenization and lung tissue RNA extraction were performed, and the supernatant was taken from the tissue sample that was homogenized using a tissue homogenizer (maintaining a low-temperature environment). The approximately 100 μL of the homogenate supernatant was taken, and total tissue RNA was extracted by using a VeZol reagent-chloroform-water phase-magnetic bead method, and dissolved in RNase-free water. The RT-qPCR reaction system was prepared as follows: a one-step RT-qPCR reaction system was prepared by using an RNA template, a probe, a primer pair, an RT-qPCR buffer, and the RNase-free water; each sample was tested in duplicated wells, with each well containing 20 μL of the one-step RT-qPCR reaction system; a quantitative standard curve well (RSV A2 N gene full-length plasmid), a positive quality control well, and a negative quality control well were arranged at the same time. Then, amplification programs were set according to reverse transcription, pre-denaturation, and cyclic amplification, and amplification data was collected by using a real-time fluorescence quantification PCR instrument, and a mean CT value for duplicated wells was calculated. The CT value from the test results for each sample was substituted into a quantitative standard curve to calculate a copy number. A calculation formula for RSV viral load (copy number/gram of lung tissue) was: sample viral load (copy number/gram of lung tissue)=copy number/relative tissue input (g).
One hour after RSV A2 challenge in cotton rats, compounds 13, 14, 17, 19, 20, 21, 26, 27, 28, and 40 were administered via tracheal nebulization once daily for 5 consecutive days; and 2 h after the final administration, lung tissue was collected from all groups for viral titer detection, and results were shown in Table 4.
In general terms: In qPCR the cycle at which signal appears reflects the starting amount.

Assay [2] has as its system RSV A2 virus strain. Nature of the assay: Mouse RSV A2 challenge protection, lung viral titer by plaque method. It is filed as in vivo, BALB/c mice. Particulars: for Mean (PFU/g lung): BALB/c mice, tracheal nebulization 1 mg/kg QD for 5 days, lung collected 2 h after final administration on Day 4; for effect on viral titer in lung tissue (in words): mice, tracheal nebulization once daily for 5 days. As for the experimental part: Female BALB/c mice were from Shanghai Yishang Biotechnology Co., Ltd. HEp- 2 were from the ATCC, with a catalog number CCL-23. The cells were cultured in a DMEM medium solution in which 10% (v/v) fetal bovine serum and 1% penicillin and streptomycin were added. The RSV A2 virus strain was from the ATCC, with a catalog number VR-1540.
Eight-week-old female BALB/c mice were grouped based on body weight (n=6). All animals were intranasally challenged with RSV on Day 0 at a challenge dosage of 1×10^6 pfu (20 μL) per animal. Administration began 1 h after Day 0 challenge; the polypeptide sample, positive control, and solvent control were administered via tracheal nebulization once daily for 5 consecutive days (see Table 3 below for administration dosage and administration frequency). Lung tissue was collected from all animals 2 h after the final administration on Day 4; left lung tissue was rapidly frozen in a virus protection solution with a 10-fold volume and stored below −70° C.; and a viral titer was detected by using a plaque method.
For analysis, the lung RSV A2 virus was determined by performing a tissue homogenate viral load plaque method. In short, on the day prior to sample detection, the HEp-2 cells were inoculated into a 12-well plate (spreading density being 0.3×10^6 cells/mL, with 1000 μL of cell suspension per well) according to a standard HEp-2 cell culture operation procedure. On the day of incubation, the supernatant was taken from the tissue sample that was homogenized using a tissue homogenizer (maintaining a low-temperature environment), and the supernatant was taken after centrifugation. The tissue homogenate sample was diluted with serum-free DMEM, and inoculated into a 12-well plate at a final volume of 400 μL. After 2 h of incubation, the homogenate supernatant was discarded, and 1.5 mL of a covering layer (cell culture medium containing 1% soft agar) was added to each well and cultured in the incubator for approximately 72 h. The covering layer was discarded, the cells were fixed, blocking was performed by using a blocking solution, dyeing was performed with HRP-RSVG, development and air drying were terminated with pure water. Colored spots on the well plate were counted by using a fluorescent (enzyme-linked) immunoassay spot analyzer, and the viral titer was expressed as a plaque-forming unit per gram of tissue (PFU/g). The viral titer was calculated as an arithmetic mean±standard error of all animals in a group.
One hour after RSV A2 challenge in mice, compounds 13, 14, 17, 19, 20, 21, 26, 27, 28, and 40 were administered via tracheal nebulization once daily for 5 consecutive days; and 2 h after the final administration, lung tissue was collected from all groups for viral plaque detection, and results were shown in Table 3.

Where a SMILES comes first, the peptide text is derived from it. The star is where a group is joined. Succinyl(4-O-cholesteryl) = CC(C)CCC[C@@H](C)[C@H]1CC[C@H]2[C@@H]3CC=C4C[C@@H](OC(=O)CCC(=O)*)CC[C@]4(C)[C@H]3CC[C@]12C

For the molecule `CC[C@H](C)[C@H](NC(=O)[C@H](CCCCN)NC(=O)[C@H](CCCCN)NC(=O)[C@H](CC(C)C)NC(=O)[C@H](CO)NC(=O)[C@H](CCC(=O)O)NC(=O)[C@H](CCC(=O)O)NC(=O)[C@@H](NC(=O)[C@H](CCCCN)NC(=O)[C@H](CCCCN)NC(=O)[C@H](CC(N)=O)NC(=O)[C@@H](NC(=O)[C@H](CCC(=O)O)NC(=O)[C@H](CCC(=O)O)NC(=O)[C@@H](NC(=O)[C@H](CCCCN)NC(=O)[C@H](CCCCN)NC(=O)[C@H](CC(=O)O)NC(=O)[C@H](Cc1ccccc1)NC(=O)[C@H](CCC(=O)O)NC(=O)[C@H](CC(=O)O)NC(=O)[C@H](Cc1c[nH]c2ccccc12)NC(C)=O)[C@@H](C)CC)C(C)C)[C@@H](C)CC)C(=O)N[C@@H](CCC(=O)O)C(=O)N[C@@H](CCC(=O)O)C(=O)N[C@@H](CO)C(=O)N[C@@H](CC(=O)O)C(=O)N[C@@H](CCCCN)C(=O)N[C@@H](CCCCN)C(=O)N[C@@H](CC(C)C)C(=O)N[C@@H](CCC(=O)O)C(=O)N[C@@H](CCC(=O)O)C(=O)N[C@H](C(=O)N[C@@H](CC(N)=O)C(=O)N[C@@H](C)C(=O)N[C@@H](CCC(=O)O)C(=O)N[C@@H](C)C(=O)N[C@@H](C)C(=O)N[C@@H](C)C(=O)N[C@@H](CCCCN)C(=O)N[C@@H](CCCCNC(=O)CCC(=O)O[C@H]1CC[C@@]2(C)C(=CC[C@H]3[C@@H]4CC[C@H]([C@H](C)CCCC(C)C)[C@@]4(C)CC[C@@H]32)C1)C(N)=O)C(C)C` [Compound 40] (Ac-WDEFDKKIEEVNKKIEESLKKIEESDKKLEEVNAEAAAKK(Succinyl(4-O-cholesteryl))-NH2), in the assay on RSV A2 virus strain [1], the “Nucleic acid load RT-qPCR detection results Log10 mean (copy number/gram of lung tissue)” value was 7.71 Log10 copy number/gram of lung and the “effect on viral titer in lung tissue (in words)” value (“effect on viral titer” for short) was “significantly reduce the viral titer in lung tissue”. In addition, in the assay on RSV A2 virus strain [2], the “Mean (PFU/g lung)” value is 5678 PFU/g lung and the “effect on viral titer” value is recorded as “significantly reduce the viral titer in lung tissue”.

As to “Ac-FDEEISQVNEKINQSLAFIRKSDELLHNVNAGKSTTEAAAKK(Succinyl(4-O-cholesteryl))-NH2 [Compound 26]”, in the assay with RSV A2 virus strain [1], the “Nucleic acid load RT-qPCR detection results Log10 mean (copy number/gram of lung tissue)” value was 7.78 Log10 copy number/gram of lung and the “effect on viral titer” value was “significantly reduce the viral titer in lung tissue”. In addition, in the assay on RSV A2 virus strain [2], the “Mean (PFU/g lung)” value was 5015 PFU/g lung and the “effect on viral titer” value is given as “significantly reduce the viral titer in lung tissue”.

Regarding “Ac-WDEFDASISQVNEKINQSLEEIRKSDELLHNVNAGLGSGSGK(Succinyl(4-O-cholesteryl))-NH2 [Compound 27]”, in the assay on RSV A2 virus strain [1], the “Nucleic acid load RT-qPCR detection results Log10 mean (copy number/gram of lung tissue)” value was 8.86 Log10 copy number/gram of lung and the “effect on viral titer” value is reported as “significantly reduce the viral titer in lung tissue”. For the same molecule, in the assay with RSV A2 virus strain [2], the “Mean (PFU/g lung)” value came to 9458 PFU/g lung and the “effect on viral titer” value was “significantly reduce the viral titer in lung tissue”.

Source of the values: US20260250325A1, “Antiviral Polypeptide Membrane Fusion Inhibitor, and Preparation Method and Application Thereof” (priority 2025, published 2026).
